Here are results for eight molecules from patent US10532106B2 (priority 2014, dated 2020).

SMILES strings stand for the structures. Numbered stars: 1 amine (or outer) side, 2 acyl side, 3 side chain; on linkers, the order of the positions; unused ones are H or OH. Bridge positions count the residues as written; N and C are the ends. Square brackets hold non-standard residues; d marks the D form. Peptide text beside a SMILES is read from it. * marks the point of attachment. 5FAM = O=C1OC2(c3ccc(O)cc3Oc3cc(O)ccc32)c2ccc(C(=O)*)cc21; Phe(4-Br) = N[C@@H](Cc1ccc(Br)cc1)C(=O)O; 1Nal = N[C@@H](Cc1cccc2ccccc12)C(=O)O; TBMB = c1c(C[*:1])cc(C[*:3])cc1C[*:2]; Tle = CC(C)(C)[C@H](N)C(=O)O; βAla = NCCC(=O)O; Sar = CNCC(=O)O

In general, AUC(0-inf) refers to the area under the concentration-time curve extrapolated to infinity. Read a high AUC(0-inf) as more exposure. As a reminder, the AUC(0-t) is exposure summed from dosing to a finite time, without extrapolation to infinity. The Cmax is the highest concentration seen after dosing. Usually Tmax stands for the time from dosing to the highest level. In general, clearance refers to the rate of elimination divided by the concentration. One may read the half-life as the time in which the quantity being followed falls by half. The Kd is the concentration at which binding is half-saturated.

The nature of data set [1]: Mouse pharmacokinetics, intravenous. The following applies: plasma, male CD1 mice, single intravenous 5.925 mg/kg. It is filed as in vivo. How it is done:
Mouse pharmacokinetics were acquired using bicyclic peptide 17-69-04-N004, which was dosed to one group of 12 male CD1 mice as a single intravenous, 5.925 mg/kg doses as a 5 mL/kg bolus of a 1.19 mg/mL solution. […] Blood samples were taken from two animals per time-point, via cardiac puncture under terminal anaesthesia, at 0.08, 0.5, 1, 2 and 4 hours post-dose, and transferred to EDTA tubes for plasma generation. Plasma samples were immediately frozen at −20 C. For analysis, samples were thawed rapidly and 50 μL aliquots were treated with 3 volumes of extraction solvent (2:9:9 mixture of 10 mM ammonium bicarbonate, pH 8, acetonitrile and methanol, containing an analytical internal standard). Precipitated proteins were removed by centrifugation and the supernatant was analysed by LC-MS/MS. Quantification of the samples was by reference to a calibration line prepared in control mouse plasma. Pharmacokinetic parameters were determined by non-compartmental analysis using the software package PK Solutions 2.0 from Summit Research Services.

Data set [2] concerns the target T1, MT1-MMP hemopexin domain (Homo sapiens, UniProt P50281).
T1 construct: residues Cys319-Gly511 from the human gene; His6 (N); made in house; host or cells: HEK293 (transient), pEXPR-IBA42 vector
Nature of the data set: Direct binding fluorescence polarisation (FP) assay. Here is the method: Direct Binding Fluorescence Polarisation or Anisotropy Assays are performed by titrating a constant concentration of fluorescent tracer (here, the fluoresceinated bicyclic peptide to be studied) with its binding partner (here, the MT1-MMP hemopexin domain). As the concentration of binding partner increases during the titration, the polarisation signal changes in proportion to the fraction of bound and unbound material. This allows determination of […] (Kd) quantitatively. Assay data can be fit using standard ligand binding equations.
The titrant (binding partner) concentration is varied from 0.1 nM up to typically 5 μM. The range is chosen such that the maximum change in fluorescent polarisation can be observed. Buffers employed are phosphate buffered saline in the presence of 0.01% Tween. Experiments were run in black 384 well low-bind/low volume plates (Corning 3820), and the fluorescent polarisation signal was measured using a BMG Pherastar FS plate reader.
Fluorescent tracers referred to in the text are bicyclic peptides that have been fluoresceinated using 5,6-carboxyfluorescein. Fluoresceination may be performed on the N-terminal amino group of the peptide, which is separated from the bicycle core sequence by a sarcosine spacer (usually Sar5). This can be done during Fmoc solid phase synthesis or post-synthetically (after cyclisation with TBMB and purification) if the N-terminal amino group is unique to the peptide. Fluoresceination can also be performed on the C-terminus, usually on a Lysine introduced as the first C-terminal residue, which is then separated from the bicycle core sequence by a sarcosine spacer (usually Sar6). Thus, N-terminal tracers can have a molecular format described as Fluo-Gly-Sar5-A(BicycleCoreSequence), and (BicycleCoreSequence)-A-Sar6-K(Fluo) for a C-terminally fluoresceinated construct. Fluorescent tracers used in the Examples are A-(17-69)-A-Sar6-K(Fluo), A-(17-69-07)-A-Sar6-K(Fluo), and A-(17-69-12)-A-Sar6-K(Fluo). Due to the acidic nature of the 17-69 fluorescent peptides, they were typically prepared as concentrated DMSO stocks, from which dilution were prepared in 100 mM Tris pH 8 buffer.

Data set [3] concerns the target T1, MT1-MMP hemopexin domain. As to the kind of experiment: Competition assay using fluorescence polarisation. It is filed as binding. As to conditions: for Kd: read-out: Kd. From the text: Here, a pre-formed complex of PEX with the fluorescent PEX-binding tracer is titrated with free, non-fluoresceinated bicyclic peptide. Since all 17-69-based peptides are expected to bind at the same site, the titrant will displace the fluorescent tracer from PEX. Dissociation of the complex can be measured quantitatively, and the Kd of the competitor (titrant) to the target protein determined. The advantage of the competition method is that the affinities of non-fluoresceinated bicyclic peptides can be determined accurately and rapidly.
Subsequently, the non-fluorescent competitor bicyclic peptide (usually just the bicycle core sequence) is titrated, such that it displaces the fluorescent tracer from the target protein. The displacement of the tracer is measured and associated with a drop in fluorescence polarisation. The drop in fluorescence polarisation is proportional to the fraction of target protein bound with the non-fluorescent titrant, and thus is a measure of the affinity of titrant to target protein.
The raw data is fit to the analytical solution of the cubic equation that describes the equilibria between fluorescent tracer, titrant, and binding protein. The fit requires the value of the affinity of fluorescent tracer to the target protein, which can be determined separately by direct binding FP experiments (see previous section).

[4] abbreviates: Table 2, FP method Direct Binding, read-out: Kd.
The mark [5] stands for this setting: Table 8, substitutions at position 4.

On to `CC[C@H](C)[C@@H]1NC(=O)[C@H](CC(=O)O)NC(=O)[C@H](Cc2ccc(O)cc2)NC(=O)[C@H](Cc2ccccc2)NC(=O)[C@H](CC(=O)O)NC(=O)[C@H](CCC(=O)O)NC(=O)[C@@H]2CSCc3cc(cc(c3)CSC[C@H](NC(C)=O)C(=O)N[C@@H](Cc3ccc(O)cc3)C(=O)N[C@@H](CC(N)=O)C(=O)N[C@@H](CCC(=O)O)C(=O)N[C@@H](Cc3ccccc3)C(=O)NCC(=O)N2)CSC[C@@H](C(N)=O)NC1=O` [17-69-07-N004, Ac-(17-69-07) (wildtype)], for which, in data set [1], the AUC(0-inf) is 4770 ng·h/mL, the AUC(0-t) was 4770 ng·h/mL, the Cmax is 15800 ng/mL and the Tmax is 5 min. The clearance in data set [1] (read-out: Clearance based on AUC 0-∞) stood at 20.7 mL/min/kg. The half-life in data set [1] (read-out: Elimination Half-life) is 14 min. Further, in data set [1] (read-out: Volume of Distribution based on AUC 0-∞), the Vd was 0.4 L/kg.

With `CC[C@H](C)[C@@H]1NC(=O)[C@H](CC(=O)O)NC(=O)[C@H](Cc2ccc(O)cc2)NC(=O)[C@H](Cc2ccccc2)NC(=O)[C@H](CC(=O)O)NC(=O)[C@H](CCC(=O)O)NC(=O)[C@@H]2CSCc3cc(cc(c3)CSC[C@@H](C(=O)N[C@@H](C)C(=O)N(C)CC(=O)N(C)CC(=O)N(C)CC(=O)N(C)CC(=O)N(C)CC(=O)N(C)CC(=O)N[C@@H](CCCCNC(=O)c3ccc4c(c3)C(=O)OC43c4ccc(O)cc4Oc4cc(O)ccc43)C(N)=O)NC1=O)CSC[C@H](NC(=O)[C@H](C)N)C(=O)N[C@@H](CCSC)C(=O)N[C@@H](CC(N)=O)C(=O)N[C@@H](CCC(N)=O)C(=O)N[C@@H](Cc1ccccc1)C(=O)NCC(=O)N2` [17-69-12-N005, A-(17-69-12)-A-Sar6-K(Fl)] (H-ACMNQFGCEDFYDICA[Sar][Sar][Sar][Sar][Sar][Sar]K(5FAM)-NH2; linker 2-8-15 via TBMB), the Kd at MT1-MMP hemopexin domain [2] (setting [4]) worked out at 3.1 nM.

Turning to `CC[C@H](C)[C@@H]1NC(=O)[C@H](CC(=O)O)NC(=O)[C@H](Cc2ccc(O)cc2)NC(=O)[C@H](Cc2ccccc2)NC(=O)[C@H](CC(=O)O)NC(=O)[C@H](CCC(=O)O)NC(=O)[C@@H]2CSCc3cc(cc(c3)CSC[C@@H](C(=O)N[C@@H](C)C(=O)N(C)CC(=O)N(C)CC(=O)N(C)CC(=O)N(C)CC(=O)N(C)CC(=O)N(C)CC(=O)N[C@@H](CCCCNC(=O)c3ccc4c(c3)C(=O)OC43c4ccc(O)cc4Oc4cc(O)ccc43)C(N)=O)NC1=O)CSC[C@H](NC(=O)[C@H](C)N)C(=O)N[C@@H](CCCCN)C(=O)N[C@@H](CC(N)=O)C(=O)N[C@@H](CCCNC(=N)N)C(=O)NCC(=O)N[C@@H](Cc1ccccc1)C(=O)NCC(=O)N2` [Peptide 17-69-N004, A-(17-69)-A-Sar6-K(Fl)] (H-ACKNRGFGCEDFYDICA[Sar][Sar][Sar][Sar][Sar][Sar]K(5FAM)-NH2; linker 2-9-16 via TBMB), the Kd on MT1-MMP hemopexin domain [2] (setting [4]) was 692 nM.

On to `C[C@H](NC(=O)CN(C)C(=O)CN(C)C(=O)CN(C)C(=O)CN(C)C(=O)CN(C)C(=O)CN(C)C(=O)CN(C)C(=O)CN(C)C(=O)CN(C)C(=O)CN(C)C(=O)CCNC(=O)c1ccc2c(c1)C(=O)OC21c2ccc(O)cc2Oc2cc(O)ccc21)C(=O)N[C@H]1CSCc2cc3cc(c2)CSC[C@H](NC(=O)[C@@H](C)NC(=O)[C@H](Cc2cccc4ccccc24)NC(=O)[C@H](CCC(=O)O)NC(=O)[C@H](CC(N)=O)NC(=O)[C@@H](C)NC1=O)C(=O)N[C@@H](CCC(=O)O)C(=O)N[C@@H](CC(=O)O)C(=O)N[C@@H](Cc1ccccc1)C(=O)N[C@@H](Cc1ccc(O)cc1)C(=O)N[C@@H](CC(=O)O)C(=O)N[C@@H](C(C)(C)C)C(=O)N[C@H](C(N)=O)CSC3` [17-69-07-N258, Fluorescein-(bAla)-Sar10-A-(17-69-07) D-Ala1 1Nal4 D-Ala5 tBuGly11] ({5FAM-βAla}-[Sar][Sar][Sar][Sar][Sar][Sar][Sar][Sar][Sar][Sar]AC[dA]NE[1Nal][dA]CEDFYD[Tle]C-NH2; linker 12-18-25 via TBMB), for which the Kd on MT1-MMP hemopexin domain [2] (Table 14, fluoresceinated derivative, read-out: V1T1-MMP (=MMP-14) (Kd, in nM)) came out at 2.2 nM.

For the molecule `CC[C@H](C)[C@@H]1NC(=O)[C@H](CC(=O)O)NC(=O)[C@H](Cc2ccc(O)cc2)NC(=O)[C@H](Cc2ccccc2)NC(=O)[C@H](CC(=O)O)NC(=O)[C@H](CCC(=O)O)NC(=O)[C@@H]2CSCc3cc(cc(c3)CSC[C@H](NC(C)=O)C(=O)N[C@@H](Cc3ccc(O)cc3)C(=O)N[C@@H](CC(N)=O)C(=O)N[C@@H](CCC(=O)O)C(=O)N[C@@H](Cc3ccccc3)C(=O)N3CCC[C@@H]3C(=O)N2)CSC[C@@H](C(N)=O)NC1=O` [17-69-07-N059, Ac-(17-69-07) D-Pro5] (Ac-CYNEF[dP]CEDFYDIC-NH2; linker 1-7-14 via TBMB), the Kd at MT1-MMP hemopexin domain [3] (Table 6, D-Alanine substitutions in first loop) is over 5000 nM.

`CC[C@H](C)[C@@H]1NC(=O)[C@H](CC(=O)O)NC(=O)[C@H](Cc2ccc(O)cc2)NC(=O)[C@H](Cc2ccccc2)NC(=O)[C@H](CC(=O)O)NC(=O)[C@H](CCC(=O)O)NC(=O)[C@@H]2CSCc3cc(cc(c3)CSC[C@H](NC(C)=O)C(=O)N[C@@H](Cc3ccc(O)cc3)C(=O)N[C@@H](CC(N)=O)C(=O)N[C@@H](CCC(=O)O)C(=O)N[C@@H](Cc3c[nH]c4ccccc34)C(=O)NCC(=O)N2)CSC[C@@H](C(N)=O)NC1=O` [17-69-44-N002, Ac-(17-69-07) Trp4] (Ac-CYNEWGCEDFYDIC-NH2; linker 1-7-14 via TBMB): on MT1-MMP hemopexin domain [3] (setting [5]), the dissociation constant Kd came to 0.75 ± 0.23 nM.

As for `CC(=O)N[C@H]1CSCc2cc3cc(c2)CSC[C@H](NC(=O)[C@@H](C)NC(=O)[C@H](Cc2cccc4ccccc24)NC(=O)[C@H](CCC(=O)O)NC(=O)[C@H](CC(N)=O)NC(=O)[C@@H](C)NC1=O)C(=O)N[C@@H](CCC(=O)O)C(=O)N[C@@H](CC(=O)O)C(=O)N[C@@H](Cc1ccccc1)C(=O)N[C@@H](Cc1ccc(Br)cc1)C(=O)N[C@@H](CC(=O)O)C(=O)N[C@@H](C(C)(C)C)C(=O)N[C@H](C(N)=O)CSC3` [17-69-07-N252, Ac-(17-69-07) D-Ala1 1Nal4 D-Ala5 4BrPhe9 tBuGly11] (Ac-C[dA]NE[1Nal][dA]CEDF[Phe(4-Br)]D[Tle]C-NH2; linker 1-7-14 via TBMB), at MT1-MMP hemopexin domain [3], the “potency / activity toward MT1-MMP, in words” value was “potency which is superior to wildtype”. Also, the Kd at MT1-MMP hemopexin domain [3] (Table 10, multi-substitution) came out at 0.8 ± 0.39 nM.

Consider `CC[C@H](C)[C@@H]1NC(=O)[C@H](CC(=O)O)NC(=O)[C@H](Cc2ccc(O)cc2)NC(=O)[C@H](Cc2ccccc2)NC(=O)[C@H](CC(=O)O)NC(=O)[C@H](CCC(=O)O)NC(=O)[C@@H]2CSCc3cc(cc(c3)CSC[C@H](NC(C)=O)C(=O)N[C@@H](Cc3ccc(O)cc3)C(=O)N[C@@H](CC(N)=O)C(=O)N[C@@H](CCC(=O)O)C(=O)N[C@@H](CCc3ccccc3)C(=O)NCC(=O)N2)CSC[C@@H](C(N)=O)NC1=O` [17-69-07-N140, Ac-(17-69-07) HPhe4], for which the Kd on MT1-MMP hemopexin domain [3] (setting [5]) is 43.3 nM.
